Values quoted from earlier work in patent publication US9820936B2, “Oral controlled release pharmaceutical compositions of Bepotastine” (LUPIN LIMITED, priority 2011, dated 2017).

Conditions: background statement

O=C(O)CCCN1CCC(O[C@@H](c2ccc(Cl)cc2)c2ccccn2)CC1 [Bepotastine, (+)-(S)-4-[4-[(4-Chlorophenyl)(2-pyridyl)methoxy]piperidino]butyric acid]
half life: 2.4 ± 0.1 h
